The values that follow come from patent US5002932A, “Antiviral pharmaceutical compositions and method of treating herpes” (priority 1987, dated 1991).

The test system of one test is HSV-2 (strain HG-52). The test can be described thus: Inhibition of HSV-2 replication in serum-starved BHK 21/C13 cells (cell culture technique, virus titration). The class given is cell-based. To be noted: for PFU per cell for control/PFU per cell for agent: 30 hours post infection; for PFU PER CELL: infected BHK 21/C13 cells harvested 30 hours post infection, control 67.00. The procedure:
This method in a modified form is exemplified hereinafter.
(a) Preparation of serum-starved cells: A medium composed of alpha medium (Gibco Canada Inc, Burlington, Ontario, Canada) and fetal calf serum (Gibco Canada Inc.), in a 9:1 volume ratio, was placed in tissue culture dishes (35 mm, A/S Nunc, Kamstrup, Denmark). The medium in each dish was seeded with BHK 21/C13 cells (1.5 ×10^6 for each dish). (BHK 21/C13 cells have been described by Y. Langelier and G. Buttin, J. Gen. Virol., 57, 21 (1981)). After 6 hours, the medium was replaced with a new medium composed of alpha medium and fetal calf serum (99.5:0.5 v/v). The resultant preparation was incubated at 37° C. for 4 days.
(b) Cell infection in BBMT medium* without serum: The incubation medium was removed from the cells. The cells were washed twice with alpha medium (without the serum) and once with the BBMT medium. The cells were then incubated at 37° C. in BBMT medium for two hours. A series of viral solutions were prepared from a stock of HSV-2 (strain HG-52, described by Langelier and Buttin, supra) and the appropriate choice and amounts of the agents to be tested, diluted with BBMT to give viral solutions having a multiplicity of infection of 0.02 plaque forming units (PFU) per cell. A control viral solution (without any agent) also was prepared. Each viral solution (250 μl) was added to duplicate dishes containing the previously prepared cells in BBMT medium. After one hour of incubation at 37° C. for virus absorption, the medium in each dish was removed by aspiration. The cells were washed twice with BBMT medium. Fresh BBMT medium (800 μl), with or without (control) the appropriate concentration of the test agent, was added to the dishes which were further incubated at 37° C. Every six hours, a concentrated solution of bacitracin in BBMT was added to the appropriate dishes to maintain the initial concentration of that agent.
*BBMT medium is described by P. Brazeau et al., Proc. Natl. Acad. Sci. USA, 79, 7909 (1982).
(c) Harvesting: At 30 hours post-infection, cells were detached with a rubber policeman and frozen at -80° C. until titration.
(d) Titration: Virus titration were performed according to the method of B. B. Wentworth and L. French, Proc. Soc. Exp. Biol. Med., 131, 588 (1969).
The following table is illustrative of the results obtained when acyclovir, bacitracin and combinations thereof were tested for activity according to the preceding method. Results are expressed in PFU per cell for infected cells harvested at 30 hours post infection. The lower the PFU per cell value, the greater the inhibitory effect on viral replication of the tested agent.

The subject of test [1] is herpes simplex virus type 1 (HSV-1). To be noted: bacitracin used alone; reported by Alarcon et al.; cited from earlier work.

Bridge positions count the residues as written; N and C are the ends. Square brackets hold non-standard residues; d marks the D form. Peptide text beside a SMILES is read from it. * marks the point of attachment. Ileψ(thiazoline)Cys = CC[C@H](C)[C@H](N)C1=N[C@H](C(=O)*)CS1; dOrn = NCCC[C@@H](N)C(=O)O

In the case of `Nc1nc2c(ncn2COCCO)c(=O)[nH]1` [Acyclovir, 9-((2-hydroxyethoxy)methyl)guanine], the “PFU per cell for control/PFU per cell for agent” value in the test on HSV-2 (strain HG-52) (Acyclovir 0.50 μM) is reported as 3.96; in the test on HSV-2 (strain HG-52) (Acyclovir 2.00 μM), 13.67. For the same compound, the “PFU PER CELL” value came to 16.9 PFU per cell in the test with HSV-2 (strain HG-52) (Acyclovir 0.50 μM) and 4.9 PFU per cell with HSV-2 (strain HG-52) (Acyclovir 2.00 μM).
For the compound `CC[C@H](C)[C@H](N)C1=N[C@H](C(=O)N[C@@H](CC(C)C)C(=O)N[C@H](CCC(=O)O)C(=O)N[C@H](C(=O)N[C@H]2CCCCNC(=O)[C@H](CC(N)=O)NC(=O)[C@@H](CC(=O)O)NC(=O)[C@H](Cc3cnc[nH]3)NC(=O)[C@@H](Cc3ccccc3)NC(=O)[C@H]([C@@H](C)CC)NC(=O)[C@@H](CCCN)NC2=O)[C@@H](C)CC)CS1` [Bacitracin] ({Ileψ(thiazoline)Cys}-L[dE]IK[dOrn]I[dF]H[dD]N; lactam 4-C), the “PFU per cell for control/PFU per cell for agent” value is 62.0 in the test with HSV-2 (strain HG-52) (Bacitracin 0.25 mM), 515.0 with HSV-2 (strain HG-52) (Bacitracin 0.50 mM), 4786.0 in the test on HSV-2 (strain HG-52) (Bacitracin 0.75 mM) and 8375.0 in the test with HSV-2 (strain HG-52) (Bacitracin 1.00 mM). Besides, the “PFU PER CELL” value with HSV-2 (strain HG-52) (Bacitracin 0.25 mM) is on record as 1.08 PFU per cell; with HSV-2 (strain HG-52) (Bacitracin 0.50 mM), 0.13 PFU per cell; in the test on HSV-2 (strain HG-52) (Bacitracin 0.75 mM) it was 0.014 PFU per cell; with HSV-2 (strain HG-52) (Bacitracin 1.00 mM) it was 0.008 PFU per cell. In test [1], the “activity against herpes simplex virus type 1 (HSV-1)” value was “inactive”.
